In patent US11702404B2, “GLP-1R modulating compounds” (priority 2019, dated 2023):
Where two headings read alike, the source gives them in different places.

Key:
[1] = biological target: GLP-1R (Homo sapiens, UniProt P43220); assay: GLP-1R activation: cAMP increase in CHO cells stably expressing GLP-1R; format: cell-based
[2] = Microsomal stability, human liver microsomes (predicted hepatic clearance); conditions: predicted from in vitro microsomal stability data
[3] = cAMP increase, CHO cells stably expressing GLP-1R, 10 point dose response, 30 minutes incubation, read-out: EC50

Sequence of GLP-1R (P43220 24-463): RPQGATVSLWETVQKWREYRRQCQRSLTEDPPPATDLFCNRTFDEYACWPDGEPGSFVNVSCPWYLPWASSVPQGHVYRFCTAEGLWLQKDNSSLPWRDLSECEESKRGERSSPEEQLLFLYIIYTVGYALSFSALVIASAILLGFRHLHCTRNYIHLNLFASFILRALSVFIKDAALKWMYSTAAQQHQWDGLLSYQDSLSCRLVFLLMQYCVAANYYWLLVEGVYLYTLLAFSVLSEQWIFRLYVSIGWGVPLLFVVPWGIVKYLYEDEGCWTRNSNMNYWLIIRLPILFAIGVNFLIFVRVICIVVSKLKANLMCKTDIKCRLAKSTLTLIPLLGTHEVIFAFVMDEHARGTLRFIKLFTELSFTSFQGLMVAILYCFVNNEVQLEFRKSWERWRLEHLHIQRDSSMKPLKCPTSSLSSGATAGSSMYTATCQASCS

Row | Structure (SMILES) | EC50 [1, 3] [nM] | Predicted Hepatic Clearance (Pred. Cl.) [2] [mL/min/kg] | EC50 ([1]; read-out: EC50) [nM] | EC50 ([1]; EC50 (nM)) [nM]
1 | N#CCC1(Cn2c(Cc3cc(F)c(-c4cccc(OCc5ccc(C#N)cc5F)n4)cc3F)nc3ccc(C(=O)O)nc32)CC1 [Example 273, 2-(4-(6-((4-cyano-2-fluorobenzyl)oxy)pyridin-2-yl)-2,5-difluorobenzyl)-3-((1-(cyanomethyl)cyclopropyl)methyl)-3H-imidazo[4,5-b]pyridine-5-carboxylic acid] | 0.52 | 7 | – | –
2 | N#CCC1(n2c(Cc3ccc(-c4cccc(OCc5ccc(C#N)cc5F)n4)cc3F)nc3ccc(C(=O)O)cc32)CC1 [Example 376, 2-(4-(6-((4-cyano-2-fluorobenzyl)oxy)pyridin-2-yl)-2-fluorobenzyl)-1-(1-(cyanomethyl)cyclopropyl)-1H-benzo[d]imidazole-6-carboxylic acid] | 1.53 | 3.83 | – | –
3 | COCCn1c(Cc2ccc(-c3cccc(OCc4ccc(C#N)cc4F)n3)cc2C#CC2CC(F)(F)C2)nc2ccc(C(=O)O)cc21 [Example 228, 2-(4-(6-((4-cyano-2-fluorobenzyl)oxy)pyridin-2-yl)-2-((3,3-difluorocyclobutyl)ethynyl)benzyl)-1-(2-methoxyethyl)-1H-benzo[d]imidazole-6-carboxylic acid] | 4.87 | 4.83 | – | –
4 | COCCn1c(Cc2cc(F)c(-c3cccc(OCc4ccc(C#N)nc4)n3)cc2F)nc2c(F)cc(C(=O)O)cc21 [Example 657] | 5.88 | 4 | – | –
5 | N#Cc1ccc(COc2cccc(-c3ccc(Cc4nc5ncc(C(=O)O)cc5n4CC4(CF)CC4)c(F)c3)n2)c(F)c1 [Example 92, 2-(4-(6-((4-cyano-2-fluorobenzyl)oxy)pyridin-2-yl)-2-fluorobenzyl)-1-((1-(fluoromethyl)cyclopropyl)methyl)-1H-imidazo[4,5-b]pyridine-6-carboxylic acid] | – | 3.17 | 2.64 | –
6 | N#CCC1(Cn2c(Cc3ccc(-c4ccnc(OCc5ccc(C#N)cc5F)n4)c(F)c3)nc3ccc(C(=O)O)nc32)CC1 [Example 300, 2-(4-(2-((4-cyano-2-fluorobenzyl)oxy)pyrimidin-4-yl)-3-fluorobenzyl)-3-((1-(cyanomethyl)cyclopropyl)methyl)-3H-imidazo[4,5-b]pyridine-5-carboxylic acid] | 0.68 | <1.83 | – | –
7 | COC1(Cn2c(Cc3cc(F)c(-c4cccc(OCc5ccc(C#N)cc5F)n4)cc3F)nc3ccc(C(=O)O)cc32)CCC1 [Example 747] | 0.81 | 7.33 | – | –
8 | O=C(O)c1ccc2nc(Cc3c(F)cc(-c4cccc(OCc5ccc(C(F)F)cc5F)n4)c(F)c3F)n(Cc3ncco3)c2c1 [Example 749] | 0.33 | 4.33 | – | –
9 | COC[C@H](Cn1c(Cc2cc(F)c(-c3cccc(OCc4ccc(C#N)cc4F)n3)cc2F)nc2ccc(C(=O)O)cc21)OC [Example 620] | – | 6.67 | – | 7.5
10 | COCCn1c(Cc2ccc(-c3cccc(OCc4ccccc4)n3)cc2F)nc2ccc(C(=O)O)cc21 [Example 501, 2-(4-(6-(benzyloxy)pyridin-2-yl)-2-fluorobenzyl)-1-(2-methoxyethyl)-1H-benzo[d]imidazole-6-carboxylic acid] | 102 | 11.5 | – | –
11 | COCCn1c(Cc2cc(F)c(-c3cccc(OCc4csc(Cl)c4)n3)cc2F)nc2ccc(C(=O)O)cc21 [Example 692] | 12.3 | 1.83 | – | –
12 | N#Cc1ccc(COc2cccc(-c3cc(F)c(Cc4nc5ccc(C(=O)O)cc5n4CCOCC(F)F)cc3F)n2)c(F)c1 [Example 828] | 3.5 | 8.5 | – | –
13 | COCCn1c(Cc2cc(F)c(-c3cccc(OCc4ccc(C#N)cc4F)n3)cc2F)nc2cc(F)c(C(=O)O)cc21 [Example 218, 2-(4-(6-((4-cyano-2-fluorobenzyl)oxy)pyridin-2-yl)-2,5-difluorobenzyl)-5-fluoro-1-(2-methoxyethyl)-1H-benzo[d]imidazole-6-carboxylic acid] | 19.1 | 7.83 | – | –
14 | N#Cc1ccc(COc2cccc(-c3ccc(Cc4nc5ccc(C(=O)O)cc5n4CC4(n5ccnn5)CC4)cc3F)n2)c(F)c1 [Example 457, 1-((1-(1H-1,2,3-triazol-1-yl)cyclopropyl)methyl)-2-(4-(6-((4-cyano-2-fluorobenzyl)oxy)pyridin-2-yl)-3-fluorobenzyl)-1H-benzo[d]imidazole-6-carboxylic acid] | 1.4 | 7.83 | – | –
15 | COCCn1c(Cc2ccc(-c3cccc(OCc4ccc(C#N)cc4F)n3)cn2)nc2ccc(C(=O)NS(=O)(=O)C3CC3)cc21 [Example 54, 2-((6-((4-cyano-2-fluorobenzyl)oxy)-[2,3′-bipyridin]-6′-yl)methyl)-N-(cyclopropylsulfonyl)-1-(2-methoxyethyl)-1H-benzo[d]imidazole-6-carboxamide] | 806 | 3.83 | – | –
16 | COCCn1c(Cc2ccc(-c3cccc(OCc4ccc(C#N)cc4F)n3)cc2C#Cc2cncnc2)nc2ccc(C(=O)O)cc21 [Example 254, 2-(4-(6-((4-cyano-2-fluorobenzyl)oxy)pyridin-2-yl)-2-(pyrimidin-5-ylethynyl)benzyl)-1-(2-methoxyethyl)-1H-benzo[d]imidazole-6-carboxylic acid] | 68.6 | <1.83 | – | –
17 | COCCn1c(Cc2cc(F)c(-c3cccc(OCc4ccc(C#N)s4)n3)cc2F)nc2ccc(C(=O)O)cc21 [Example 805] | 7.12 | 12 | – | –
18 | COc1cc(C#N)ccc1COc1nccc(-c2cc(F)c(Cc3nc4c(F)cc(C(=O)O)cc4n3C[C@@H]3CCO3)cc2F)n1 [Example 398, (S)-2-(4-(2-((4-cyano-2-methoxybenzyl)oxy)pyrimidin-4-yl)-2,5-difluorobenzyl)-4-fluoro-1-(oxetan-2-ylmethyl)-1H-benzo[d]imidazole-6-carboxylic acid] | 0.1 | 10.2 | – | –
19 | COCCn1c(Cc2cc(F)c(-c3nc(OCc4ccc(C#N)cc4F)ccc3F)cc2F)nc2ccc(C(=O)O)cc21 [Example 202, 2-(4-(6-((4-cyano-2-fluorobenzyl)oxy)-3-fluoropyridin-2-yl)-2,5-difluorobenzyl)-1-(2-methoxyethyl)-1H-benzo[d]imidazole-carboxylic acid] | 3.34 | 5.25 | – | –
20 | COCCn1c(Cc2ccc(-c3cccc(OCc4ccc(C#N)cc4F)n3)cc2NC(C)=O)nc2ccc(C(=O)O)cc21 [Example 65, 2-(2-Acetamido-4-(6-((4-cyano-2-fluorobenzyl)oxy)pyridin-2-yl)benzyl)-1-(2-methoxyethyl)-1H-benzo[d]imidazole-6-carboxylic acid] | 1230 | 7.17 | – | –
21 | COCCn1c(Cc2ccc(-c3cc(F)cc(OCc4ccc(C#N)cc4F)c3)cc2F)nc2ccc(C(=O)O)cc21 [Example 27, 2-((3′-((4-cyano-2-fluorobenzyl)oxy)-3,5′-difluoro-[1,1′-biphenyl]-4-yl)methyl)-1-(2-methoxyethyl)-1H-benzop[d]imidazole-6-carboxylic acid] | 78 | 2.5 | – | –
22 | N#Cc1ccc(COc2nccc(-c3ccc(Cc4nc5c(F)cc(C(=O)O)cc5n4CC45CC(CO4)C5)cc3F)n2)c(F)c1 [Example 650] | 19.6 | 11 | – | –
23 | COCCn1c(Cc2ccc(-c3cccc(OCc4cc(C(F)(F)F)ccc4OC)n3)cc2F)nc2ccc(C(=O)O)cc21 [Example 470, 2-(2-fluoro-4-(6-((2-methoxy-5-(trifluoromethyl)benzyl)oxy)pyridin-2-yl)benzyl)-1-(2-methoxyethyl)-1H-benzo[d]imidazole-6-carboxylic acid] | 1250 | <1.83 | – | –
24 | N#CCC1(Cn2c(Cc3cc(F)c(-c4ccnc(OCc5ccc(C#N)cc5F)n4)cc3F)nc3c(F)cc(C(=O)O)cc32)CC1 [Example 268, 2-(4-(2-((4-cyano-2-fluorobenzyl)oxy)pyrimidin-4-yl)-2,5-difluorobenzyl)-1-((1-(cyanomethyl)cyclopropyl)methyl)-4-fluoro-1H-benzo[d]imidazole-6-carboxylic acid] | 15.7 | 3.67 | – | –
25 | COCCn1c(Cc2ccc(-c3nc(OCc4ccc(C#N)cc4F)ccc3F)c(F)c2)nc2ccc(C(=O)O)cc21 [Example 114, 2-[[4-[6-[(4-cyano-2-fluoro-phenyl)methoxy]-3-fluoro-2-pyridyl]-3-fluoro-phenyl]methyl]-3-(2-methoxyethyl)benzimidazole-5-carboxylic acid] | 932 | 5.92 | – | –
26 | COCCn1c(Cc2cc(F)c(-c3cccc(OCc4ccc(C5=CCNCC5)cc4F)n3)cc2F)nc2ccc(C(=O)O)cc21 [Example 901, 2-(2,5-difluoro-4-(6-((2-fluoro-4-(1,2,3,6-tetrahydropyridin-4-yl)benzyl)oxy)pyridin-2-yl)benzyl)-1-(2-methoxyethyl)-1H-benzo[d]imidazole-6-carboxylic acid] | 160 | 4.5 | – | –
27 | N#CCC1(Cn2c(Cc3ccc(-c4ccnc(OCc5ccc(C#N)cc5F)n4)cc3F)nc3ccc(C(=O)O)cc32)CC1 [Example 353, 2-(4-(2-((4-cyano-2-fluorobenzyl)oxy)pyrimidin-4-yl)-2-fluorobenzyl)-1-((1-(cyanomethyl)cyclopropyl)methyl)-1H-benzo[d]imidazole-6-carboxylic acid] | 1.67 | <1.83 | – | –
28 | N#Cc1ccc(COc2ccc(F)c(-c3cc(F)c(Cc4nc5ccc(C(=O)O)cc5n4C[C@@H]4CCO4)cc3F)n2)c(F)c1 [Example 793] | 0.17 | 5.67 | – | –
